Tests used:
[1] = Crystal; DTA
[2] = refractive index (other wavelength) (dimensionless); details: 101 kPa, Liquid, Wavelength=632.8 nm, ellipsometry
[3] = refractive index (other wavelength) (dimensionless); xn = mol fraction of the nth substance listed; details: Liquid, ellipsometry

[Cl][Nd]([Cl])[Cl] [neodymium(III) chloride]
Details	Normal melting temperature [°C]
[1]	760

[2]
Details	refractive index
1053 K	1.704
1073 K	1.701
1093 K	1.698
1113 K	1.695
1133 K	1.692
1153 K	1.689
1173 K	1.686
1193 K	1.683
1213 K	1.68

[Cl-].[K+] [potassium chloride]
[2]
Details	refractive index
1073 K	1.393
1093 K	1.39
1103 K	1.388
1113 K	1.386
1123 K	1.385
1133 K	1.383
1153 K	1.38
1173 K	1.377
1193 K	1.374

[Cl-].[K+] [potassium chloride] + [Cl-].[Cl-].[Cl-].[Gd+3]
[3], 100 kPa, Wavelength=632.8 nm, x2 = 0
Details	refractive index
1073 K	1.393
1093 K	1.39
1103 K	1.388
1113 K	1.386
1123 K	1.385
1133 K	1.383
1153 K	1.38
1173 K	1.377
1193 K	1.374

[Cl-].[K+] [potassium chloride] + [Cl-].[Na+]
[3], 101 kPa, Wavelength=632.8 nm, x2 = 0.5
Details	refractive index
953 K	1.42
973 K	1.417
993 K	1.414
1013 K	1.411
1033 K	1.408
1053 K	1.405
1073 K	1.402
1093 K	1.399
1103 K	1.397
1113 K	1.396
1123 K	1.394
1133 K	1.393
1153 K	1.39
1173 K	1.387

[Cl-].[K+] [potassium chloride] + [Cl][Ce]([Cl])[Cl]
[3], 100 kPa, Wavelength=632.8 nm, x2 = 0
Details	refractive index
1073 K	1.393
1093 K	1.39
1103 K	1.388
1113 K	1.386
1123 K	1.385
1133 K	1.383
1153 K	1.38
1173 K	1.377
1193 K	1.374

[Cl-].[K+] [potassium chloride] + [Cl][Sm]([Cl])[Cl]
[3], 100 kPa, Wavelength=632.8 nm, x2 = 0
Details	refractive index
1073 K	1.393
1093 K	1.39
1103 K	1.388
1113 K	1.386
1123 K	1.385
1133 K	1.383
1153 K	1.38
1173 K	1.377
1193 K	1.374

[Cl][Sm]([Cl])[Cl] [samarium chloride]
Details	Normal melting temperature [°C]
[1]	678

[2]
Details	refractive index
973 K	1.712
1003 K	1.705
1023 K	1.701
1073 K	1.691
1103 K	1.684
1123 K	1.68
1153 K	1.674
1173 K	1.672

[Cl][Sm]([Cl])[Cl] [samarium chloride] + [Cl-].[Cs+]
refractive index, [3], 100 kPa, Wavelength=6328 nm
Details	973 K	1003 K	1023 K	1073 K	1103 K	1123 K	1153 K	1173 K	1203 K
x1 = 0.15	–	–	1.468	1.464	1.458	1.448	–	1.44	–
x1 = 0.5	1.564	1.558	1.557	1.55	1.543	1.54	–	1.527	1.523
x1 = 0.75	1.675	1.668	1.662	1.654	1.651	1.642	–	1.64	1.635
x1 = 1	1.712	1.705	1.701	1.691	1.684	1.68	1.674	1.672	–

[Cl][Sm]([Cl])[Cl] [samarium chloride] + [Cl-].[K+]
refractive index, [3], 100 kPa, Wavelength=632.8 nm
Details	973 K	1003 K	1023 K	1073 K	1103 K	1123 K	1153 K	1173 K	1203 K
x1 = 0.25	–	–	–	1.478	1.47	1.466	–	1.458	1.45
x1 = 0.5	1.588	1.582	1.577	1.56	1.551	1.54	–	1.525	1.52
x1 = 0.75	1.66	1.652	1.651	1.63	1.623	1.618	–	1.605	1.601
x1 = 1	1.712	1.705	1.701	1.691	1.684	1.68	1.674	1.672	–

[Cl][Sm]([Cl])[Cl] [samarium chloride] + [Cl-].[Na+]
refractive index, [3], 100 kPa, Wavelength=632.8 nm
Details	973 K	1003 K	1023 K	1073 K	1103 K	1123 K	1153 K	1173 K	1193 K
x1 = 0.25	1.536	1.53	1.526	1.518	1.513	1.51	–	1.503	1.499
x1 = 0.5	1.613	1.609	1.602	1.583	1.582	1.58	–	1.569	–
x1 = 0.75	1.672	1.665	1.662	1.653	1.648	1.64	–	1.629	–
x1 = 1	1.712	1.705	1.701	1.691	1.684	1.68	1.674	1.672	–

[Cl-].[Na+] [sodium chloride]
[2]
Details	refractive index
1083 K	1.41
1093 K	1.408
1103 K	1.407
1113 K	1.406
1123 K	1.405
1133 K	1.404
1153 K	1.402
1173 K	1.399

[Cl-].[Na+] [sodium chloride] + [Cl-].[Cl-].[Cl-].[Gd+3]
[3], 100 kPa, Wavelength=632.8 nm, x2 = 0
Details	refractive index
1083 K	1.41
1093 K	1.408
1103 K	1.407
1113 K	1.406
1123 K	1.405
1133 K	1.404
1153 K	1.402
1173 K	1.399

[Cl-].[Na+] [sodium chloride] + [Cl][Ce]([Cl])[Cl]
[3], 101 kPa, Wavelength=632.8 nm, x2 = 0
Details	refractive index
1083 K	1.41
1093 K	1.408
1103 K	1.407
1113 K	1.406
1123 K	1.405
1133 K	1.404
1153 K	1.402
1173 K	1.399

[Cl-].[Na+] [sodium chloride] + [Cl][Sm]([Cl])[Cl]
[3], 100 kPa, Wavelength=632.8 nm, x2 = 0
Details	refractive index
1083 K	1.41
1093 K	1.408
1103 K	1.407
1113 K	1.406
1123 K	1.405
1133 K	1.404
1153 K	1.402
1173 K	1.399

Source: the NIST ThermoML archive (doi:10.1021/acs.jced.6b00362)
